Legend:
haSR-BI [1] = biological target: T1, haSR-BI (Cricetulus griseus, UniProt Q60417); test: [3H]-liposome binding at 4° C. to haSR-BI in ldlA[haSR-BI] cells; set-up: species or system hamster; conditions: EDTA 1-10 mM
T1 construct: expressed in transfected cells
T1 sequence (Q60417 1-509): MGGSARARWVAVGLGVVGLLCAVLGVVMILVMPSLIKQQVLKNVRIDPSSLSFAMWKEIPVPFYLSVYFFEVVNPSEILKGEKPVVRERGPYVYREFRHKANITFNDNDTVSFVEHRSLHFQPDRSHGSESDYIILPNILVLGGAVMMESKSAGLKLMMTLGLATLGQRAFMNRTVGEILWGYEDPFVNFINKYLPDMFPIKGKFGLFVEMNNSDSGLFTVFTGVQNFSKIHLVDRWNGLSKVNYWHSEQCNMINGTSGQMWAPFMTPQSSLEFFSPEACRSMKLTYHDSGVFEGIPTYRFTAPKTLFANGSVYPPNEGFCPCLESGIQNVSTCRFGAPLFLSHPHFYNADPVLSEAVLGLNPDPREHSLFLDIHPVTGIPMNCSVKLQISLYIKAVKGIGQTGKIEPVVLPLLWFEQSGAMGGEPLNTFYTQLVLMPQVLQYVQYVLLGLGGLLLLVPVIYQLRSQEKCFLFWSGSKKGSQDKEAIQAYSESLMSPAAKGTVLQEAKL
Method: Unilamellar liposomes were made by extrusion through policarbonate membranes (Szoka et al., 1980). Phospholipid liposomes were prepared containing the indicated phospholipid, phosphatidycholine, and free cholesterol in a molar ratio of 1:1:1. The lipids were mixed in chloroform and dried by rotary evaporation for 30 min. For preparation of radiolabeled liposomes, 50-75 μCi of [^3H]DPPC(62 Ci/mmol) were added to the lipid mixtures before drying. The dried lipids were resuspended in 150 mM NaCl, 0.1 mM EDTA, 10 mM HEPES, pH 7.5 (Buffer A). […] The final phospholipid concentration was determined by the method of Bartlett (1959). The average diameters of unlabeled liposomes, which were determined from either two or three independent preparations using light scattering with a Coulter N4 plus light scatterer apparatus (Coulter Electronics Inc., Hialeah, Fla.), were: PS, 105; PC, 114: PA, 125; PE, 129; P1, 113; and SM, 131 nm. The number of phospholipid molecules/PS liposome was calculated as follows. […]
Ligand Binding Assays. […] The cells were then solubilized with […], and radioactivity and protein determinations were made as described above. […] The binding values are expressed as nanograms of bound ^125I-labeled protein or ng of total phospholipids from ^3H-labeled liposomes/milligram of cell protein. […]

Var-261 cells [2] = test: 125I-AcLDL degradation and binding plus uptake at 37° C. in Var-261 cells; type: cell-based, Chinese hamster; conditions: for competition for 125I-AcLDL degradation: 125I-AcLDL 5 μg/ml, 5 hr
dSR-CI = test: Competitive inhibition of 125I-AcLDL degradation activity by CHO[dSR-CI]-2.6a cells; type: cell-based, Drosophila melanogaster
Method: (§1) Scavenger receptor activities at 37° C. were measured by ligand binding, uptake and degradation assays as described by Krieger, 1983; Freeman et al., 1991). Although binding and uptake at 37° C. were determined separately using dextran-sulfate to free surface bound lipoproteins from the cells as described for LDL receptor assays by Goldstein et al., 1983; Basu et al., 1983 Science 219, 871-873), this method for separating bound from internalized ligand for ^125I-AcLDL and scavenger receptors has not been independently validated. Accordingly, the values for binding and uptake were combined and are presented as binding plus uptake observed after a 5 hour incubation and are expressed as ng of ^125I-AcLDL protein per 5 hr per mg cell protein. Degradation activity is expressed as ng of ^125I-AcLDL protein degraded in 5 hours per mg of cell protein. The specific, high affinity values presented represent the differences between the results obtained in the presence (single determinations) and absence (duplicate determinations) of excess unlabeled competing ligand (75 to 200 μg/ml of M-BSA). Cell surface 4° C. binding was assayed using either method A or method B as indicated. In method A, cells were prechilled on ice for 15 min, re-fed with ^125I-AcLDL in ice-cold medium B supplemented with 10% (v/v) fetal bovine serum, with or without 75-200 μg/ml unlabeled M-BSA, and incubated 2 hr at 4° C. on a shaker. Cells were then washed rapidly three times with Tris wash buffer (50 mM Tris-HCl, 0.15M NaCl, pH 7.4) containing 2 mg/ml BSA, followed by two 5 min washes, and two rapid washes with Tris wash buffer without BSA. The cells were solubilized in 1 ml of 0.1N NaOH for 20 min at room temperature on a shaker, 30 μl were removed for protein determination, and the radioactivity in the remainder was determined using a LKB gamma counter. Method B differed from method A in that the cells were prechilled for 45 minutes, the medium contained 10 mM HEPES and 5% (v/v) human lipoprotein-deficient serum rather than fetal bovine serum, and the cell-associated radioactivity released by treatment with dextran sulfate was measured as described by Krieger, 1983; Freeman et al., 1991).
Competitive binding of AcLDL was performed to more accurately define the specificity of the AcLDL binding.

Var-261 cells [3] = test: 125I-AcLDL binding at 4° C. to Var-261 cells, competition; set-up: species or system Chinese hamster; conditions: 125I-AcLDL 5 μg/ml, FIG. 3B: M-BSA 10, poly G 500, fucoidin 200, carrageenan 200, LDL 500 μg/ml
Method: as §1
(§2) To measure binding of AcLDL, on day 1, COS cells were transfected with the expression vector for the hamster scavenger receptor type BI (haSR-BI). On day 2 the transfected COS cells were plated in 6-well dishes (1×10^6 cells/well in medium A plus 1 mM sodium butyrate). […] On day 3 the binding of ^125I-AcLDL (5 μg/ml) at 4° C. in the absence or presence of the indicated competitors was measured using Method A. The values shown in the Figures represent the averages of duplicate determinations. […]

CD36 = biological target: T2, CD36 (Homo sapiens, UniProt P16671); test: 125I-AcLDL degradation at 37° C. in COS cells transfected with CD36, competition; type: cell-based; conditions: 5 hr, FIG. 4B: M-BSA 4, AcLDL 500, fucoidin 200, poly I 500, poly G 500, ReLPS 250 μg/ml
T2 construct: expressed in transfected cells; host or cells: COS cells (transient)
T2 sequence (P16671 whole entry): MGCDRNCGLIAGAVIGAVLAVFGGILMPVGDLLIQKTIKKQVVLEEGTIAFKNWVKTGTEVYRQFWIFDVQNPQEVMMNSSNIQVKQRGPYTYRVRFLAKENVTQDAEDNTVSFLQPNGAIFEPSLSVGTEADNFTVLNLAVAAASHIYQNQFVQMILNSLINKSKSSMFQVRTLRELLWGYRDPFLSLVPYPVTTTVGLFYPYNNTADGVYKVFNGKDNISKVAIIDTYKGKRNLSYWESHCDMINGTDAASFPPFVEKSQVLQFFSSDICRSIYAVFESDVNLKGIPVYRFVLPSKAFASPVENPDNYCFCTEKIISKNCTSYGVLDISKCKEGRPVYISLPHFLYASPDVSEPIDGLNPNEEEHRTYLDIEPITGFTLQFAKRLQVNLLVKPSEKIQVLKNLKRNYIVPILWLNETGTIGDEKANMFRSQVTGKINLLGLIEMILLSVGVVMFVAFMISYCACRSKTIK
Method: as §1
COS cells were transfected on day 1 with a plasmid encoding CD36. On day 2 the transfected cells were set in 6-well dishes at 1×10^6 cells/well in medium A plus 1 mM sodium butyrate. On day 3, 125I-AcLDL binding at 4° C. was measured. […] On day 3, degradation of ^125I-AcLDL (5 μg/ml) was measured after a 5 hr incubation at 37° C. in the absence (duplicate determinations) or presence (duplicate determinations) of the indicated competitors. […]

haSR-BI [4] = biological target: T1, haSR-BI; test: 125I-AcLDL binding at 4° C. to haSR-BI in transfected COS or ldlA cells; set-up: species or system hamster; conditions: ldlA[haSR-BI] cells, 125I-AcLDL 5 μg/ml, FIG. 3B: M-BSA 10, poly G 500, fucoidin 200, carrageenan 200, LDL 500 μg/ml
Method: as §1
HDL and VLDL binding to SR-BI and CD36 were conducted as described for LDL and modified LDL.
as §2

[5] = biological target: T3, murine type II macrophage scavenger receptor (mSR-AII) (Mus musculus, UniProt P30204); test: 125I-AcLDL degradation at 37° C. in COS cells expressing murine scavenger receptor type II; type: cell-based; conditions: for competition for 125I-AcLDL degradation: COS[mSR-AII] cells, 125I-AcLDL 5 μg/ml, 5 hr, 37° C.
T3 construct: expressed in transfected cells; host or cells: COS cells (transient)
T3 sequence (P30204 1-354 isoform P30204-2): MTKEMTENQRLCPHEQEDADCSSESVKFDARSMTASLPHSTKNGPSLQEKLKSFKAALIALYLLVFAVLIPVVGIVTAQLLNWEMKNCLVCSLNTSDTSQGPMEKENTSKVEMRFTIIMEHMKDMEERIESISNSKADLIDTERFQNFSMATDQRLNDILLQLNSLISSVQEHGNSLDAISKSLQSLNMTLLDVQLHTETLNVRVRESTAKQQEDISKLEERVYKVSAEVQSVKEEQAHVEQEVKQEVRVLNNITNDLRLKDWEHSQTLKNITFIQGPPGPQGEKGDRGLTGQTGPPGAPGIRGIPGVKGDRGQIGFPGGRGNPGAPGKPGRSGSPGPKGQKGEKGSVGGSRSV
Method: as §1, with “In method A, cells were prechilled on ice for 15 min, re-fed with ^125I-AcLDL in ice-cold medium B supplemented with 10% (v/v) fetal bovine serum, with or without 75-200 μg/ml unlabeled M-BSA, and incubated 2 hr at 4° C. on a shaker. Cells were then washed rapidly three times with Tris wash buffer (50 mM Tris-HCl, 0.15M NaCl, pH 7.4) containing 2 mg/ml BSA, followed by two 5 min washes, and two rapid washes with Tris wash buffer without BSA.” left out
COS cells were transfected on day 1 with murine scavenger receptor type II. […] On day 3, ^125I-AcLDL (5 μg/ml) in medium B plus 10% fetal bovine serum was added to the cells and degradation was measured after a 5 hr incubation at 37° C. in the absence (duplicate determinations) or presence (duplicate determinations) of the indicated amounts of polyanions. […]

Compound | Degradation (% No Competitor) (dSR-CI; competitor 400 μg/ml) | inhibition of 125I-AcLDL binding (Var-261 cells [3]) | competition for 125I-AcLDL degradation (Var-261 cells [2]; 37° C.) | inhibition of receptor activity, 125I-AcLDL degradation (CD36) | inhibition of 125I-AcLDL binding (haSR-BI [4]) | also measured
O=C(O)CN(CCN(CC(=O)O)CC(=O)O)CC(=O)O [EDTA] | – | – | – | – | – | effect on PS liposome binding (haSR-BI [1]): not inhibited
CCN(CC)CCCC(C)Nc1ccnc2cc(Cl)ccc12 (stereo not drawn) [chloroquine] | – | – | – | – | – | effect on 125I-AcLDL binding plus uptake (Var-261 cells [2]; 37° C.): not; effect on 125I-AcLDL degradation (Var-261 cells [2]; 37° C.): inhibited
Dextran | 100 | – | – | – | – | –
M-BSA: maleylated BSA | 6.7 | inhibited | inhibited | inhibited | inhibited | –
Poly D-glutamic acid | 34 | – | – | – | – | –
Polyriboguanylic acid [poly G] | – | competitors | effective competitors | not | not inhibited | competition for 125I-AcLDL degradation [5]: effective competitors
carrageenan | – | competitors | – | – | not inhibited | –
dextran sulfate | – | – | – | – | – | Degradation (% No Competitor) (dSR-CI; competitor concentration not given): 4.2 % No Competitor
fucoidin | – | competitors | effective competitors | not | not inhibited | competition for 125I-AcLDL degradation [5]: effective competitors
polyriboinosinic acid [poly I] | 2.7 | – | – | not | – | inhibition of 125I-AcLDL degradation ([5]; class A scavenger receptors, competitor at 2.5 μg/ml): greater than 50%; inhibition of 125I-AcLDL degradation (Var-261 cells [2]; competitor at 400 μg/ml): 34%
